Results as given in patent US9902735B2, “Heteroaryl substituted compounds as RORγ inhibitors” (GlaxoSmithKline Intellectual Property Developement Limited, priority 2014, dated 2018).

Target: T1, RORγ (Homo sapiens, UniProt P51449)
T1 construct: expressed in transfected cells
T1 sequence (P51449 1-497 isoform P51449-2): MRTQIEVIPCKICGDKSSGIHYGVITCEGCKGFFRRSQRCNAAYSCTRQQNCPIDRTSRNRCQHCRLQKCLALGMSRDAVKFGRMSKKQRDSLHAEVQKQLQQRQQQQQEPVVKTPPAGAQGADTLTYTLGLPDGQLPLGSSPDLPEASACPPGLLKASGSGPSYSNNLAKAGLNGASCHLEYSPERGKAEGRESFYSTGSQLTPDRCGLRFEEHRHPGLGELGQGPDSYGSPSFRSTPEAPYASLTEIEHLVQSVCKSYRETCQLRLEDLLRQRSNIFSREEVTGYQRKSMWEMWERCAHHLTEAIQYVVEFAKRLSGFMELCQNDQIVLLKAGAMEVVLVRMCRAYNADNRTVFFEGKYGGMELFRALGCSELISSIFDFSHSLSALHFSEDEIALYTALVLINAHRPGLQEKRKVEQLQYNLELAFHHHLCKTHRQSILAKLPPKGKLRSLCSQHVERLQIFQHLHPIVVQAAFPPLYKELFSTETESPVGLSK
Assay: Jurkat cell luciferase assay (human IL17 promoter reporter)
Assay type: cell-based
Details: mean of multiple test results if tested more than once; read-out: pIC50 in the Jurkat cell luciferase assay (converted)
From the text: RORγ is known to bind to a CNS (conserved non-coding sequences) enhancer element in the IL17 promoter. In this assay, RORγ activity is indirectly assessed using a luciferase reporter construct which contains the human IL17 promoter having the RORγ-specific CNS enhancer element. Inhibition of RORγ activity by a compound will result in a decrease in luciferase activity of Jurkat cells transfected with the reporter construct.
For the luciferase reporter plasmid, the 3 Kb human IL17 promoter containing the RORγ-specific CNS enhancer element was PCR amplified from human genomic DNA and cloned into a pGL4-Luc2/hygro reporter plasmid sequentially as XhoI-HindIII (1.1 Kb) and KpnI-XhoI (1.9 Kb) fragments. For the 1.1 Kb fragment, PCR was used to amplify human IL17 proximal promoter region from genomic DNA of 293T cells using primers as follows: forward primer, 5′-[…]-3′ (XhoI site is underlined) and reverse primer, 5′-[…]-3′ (HindIII site is underlined). The 1.1 kb DNA bands were excised, purified, and inserted into pMD19-T Simple Vector (Takara). […]
Compounds were dissolved in DMSO at three concentrations, 10 mM, 400 uM and 16 uM, and were dispensed into 384-wells assay plate at 40 nl, 12.5 nl, 5 nl respectively. The volume was adjusted with pure DMSO to a give a final uniform volume of 40 nl Jurkat cells described above were counted and centrifuged. […]

IC50: ~6.31 nM
SMILES: Cc1ncc(C(=O)Nc2cc(Cl)cc(CN3CCN(C(=O)CC4CC4)[C@@H](C)C3)c2C)cc1F [Example 80, (S)—N-(5-chloro-3-((4-(2-cyclopropylacetyl)-3-methylpiperazin-1-yl)methyl)-2-methylphenyl)-5-fluoro-6-methylnicotinamide]
